The values below come from patent US11707511B2, “Vaccine compositions and methods of using the same” (The Board of Supervisors of Louisiana State University and …, priority 2017, dated 2023).

Entries after “also recorded” stand apart in the source; their conditions may differ.

One test concerns C. albicans 3153A. Description: Amp B - antibody combination therapy of mice with disseminated candidiasis. To be noted: BALB/c mice, Amp B 0.5 mg/kg. In kind it is in vivo, Candida albicans. As to the method: Mice were then given by i.v. of 5×10e5 of C. albicans 3153A yeast cells, 8 hour later the mice received i.p. 0.5 mg Amp B/kg body weight with each mAb (E2-9, M2-4, 2D5F7 and 2B10C1). Mice without any treatment and mice treated with antifungal drug alone were used as controls. Survival curves were scored and MST were measured.

A further test relates to HLA-DR types. The following applies: of the most common HLA-DR types tested to date; cited from earlier work.
The conditions of test [1]: when incorporated into several peptide antigens; average; cited from earlier work.

As for `C[C@@H]1[C@H](O)[C@@H](C)/C=C/C=C/C=C/C=C/C=C/C=C/C=C/[C@H](O[C@@H]2O[C@H](C)[C@@H](O)[C@H](N)[C@@H]2O)C[C@@H]2O[C@](O)(C[C@@H](O)C[C@@H](O)[C@H](O)CC[C@@H](O)C[C@@H](O)CC(=O)O[C@H]1C)C[C@H](O)[C@H]2C(=O)O` [Amp B, amphotericin B], in the test with C. albicans 3153A (treatment 8 hours post-infection, in words), the “therapeutic effect / survival time” value was “the same susceptible to the disease as mice that received no Amp B; also recorded: no therapeutic effect”. Besides, the “MST (mean survival times)” value with C. albicans 3153A (Table 16, 5×10e5 C. albicans 3153A i.v., treatment i.p. 8 hours post-infection) was 14.5 ± 3.7 days. As to AKFVAAWTLKAAA [PADRE], the “HLA-DR types bound with high or intermediate affinity” value in the test with HLA-DR types is recorded as 15 of 16. On to RGD, for which, in test [1], the “enhancement of antibody titers” value is given as 10 times.
